The source of these data is US6613747B2, “6-O-carbamoyl ketolide antibacterials” (Ortho-McNeil Pharmaceutical, Inc., priority 2000, dated 2003).

What all share (assay): MIC, microdilution broth method (NCCLS)
Holding throughout (assay type): cell-based
A general note: Dilution methods test growth across graded concentrations, often in twofold steps.

In experiment [1] the test system is S. aureus ATCC29213. Conditions: B: S. aureus ATCC29213, 35° C., 16-20 hours. On the procedure: (§1) Minimal inhibitory concentration (MIC) has been an indicator of in vitro antibacterial activity widely used in the art. The in vitro antimicrobial activity of the compounds was determined by the microdilution broth method following the test method from the National Committee for Clinical Laboratory Standards (NCCLS). This method is described in the NCCLS Document M7-A4, Vol. 17, No. 2, “Methods for Dilution Antimicrobial Susceptibility Test for Bacteria that Grow Aerobically—Fourth Edition”, which is incorporated herein by reference.
(§2) In this method two-fold serial dilutions of drug in cation adjusted Mueller-Hinton broth are added to wells in microdilution trays. The test organisms are prepared by adjusting the turbidity of actively growing broth cultures so that the final concentration of test organism after it is added to the wells is approximately 5×10^4 CFU/well.
(§3) Following inoculation of the microdilution trays, the trays are incubated at 35° C. for 16-20 hours and then read. […] The amount of growth in the wells containing the test compound is compared with the amount of growth in the growth-control wells (no test compound) used in each tray. As set forth in Table 1, compounds of the present invention were tested against a variety of Gram positive and Gram negative pathogenic bacteria resulting in a range of activities depending on the organism tested.

For experiment [2], the system named is E. coli OC2605. The note with it: A: E. coli OC2605, 35° C., 16-20 hours. On the procedure: as §1, §2, §3
In experiment [3] the test system is H. influenzae ATCC49247. Conditions: E: H. influenzae ATCC49247, 35° C., 16-20 hours. On the procedure: as §1, §2, §3
In experiment [4] the test system is S. pneumoniae ATCC49619. The note with it: D: S. pneumoniae ATCC49619, 35° C., 16-20 hours. On the procedure: as §1, §2, §3
For experiment [5], the system named is E. faecalis ATCC29212. Conditions: C: E. faecalis ATCC29212, 35° C., 16-20 hours. On the procedure:
as §1, §2, §3

Molecules are shown by their SMILES. ≈ marks a conversion by molar mass, not a printed value.

Consider `CC[C@H]1OC(=O)[C@H](C)C(=O)[C@H](C)[C@@H](O[C@@H]2O[C@H](C)C[C@H](N(C)C)[C@H]2O)[C@](C)(OC(=O)NCCNCc2ccc(-c3ncccn3)cc2)C[C@@H](C)C(=O)[C@H](C)[C@H]2NC(=O)O[C@@]21C` [Compound 115], for which the MIC in experiment [1] is 2 µg/mL (≈ 2.34 µM); in experiment [2], more than 16 µg/mL; in experiment [3], 16 µg/mL (≈ 18.8 µM); in experiment [4], 0.06 µg/mL (≈ 0.0703 µM); in experiment [5] it was 0.5 µg/mL (≈ 0.586 µM).
Turning to `CC[C@H]1OC(=O)[C@H](C)C(=O)[C@H](C)[C@@H](O[C@@H]2O[C@H](C)C[C@H](N(C)C)[C@H]2O)[C@](C)(OC(=O)NCc2cnn(-c3ccccc3)c2)C[C@@H](C)C(=O)[C@H](C)[C@H]2NC(=O)O[C@@]21C` [Compound 61], the MIC in experiment [1] worked out at 0.5 µg/mL (≈ 0.627 µM); in experiment [2] it was 16 µg/mL (≈ 20.1 µM); in experiment [3], 2 µg/mL (≈ 2.51 µM); in experiment [4], 0.03 µg/mL (≈ 0.0376 µM); in experiment [5] it was 0.06 µg/mL (≈ 0.0752 µM).
In the case of `CC[C@H]1OC(=O)[C@H](C)C(=O)[C@H](C)[C@@H](O[C@@H]2O[C@H](C)C[C@H](N(C)C)[C@H]2O)[C@](C)(OC(=O)NCc2ccc(-n3ccnc3)cc2)C[C@@H](C)C(=O)[C@H](C)[C@H]2NC(=O)O[C@@]21C` [Compound 8], the MIC in experiment [1] stood at 1 µg/mL (≈ 1.25 µM); in experiment [2], 16 µg/mL (≈ 20.1 µM); in experiment [3] it was 4 µg/mL (≈ 5.01 µM); in experiment [4], 0.03 µg/mL (≈ 0.0376 µM); in experiment [5], 0.12 µg/mL (≈ 0.15 µM).
For `CC[C@H]1OC(=O)[C@H](C)C(=O)[C@H](C)[C@@H](O[C@@H]2O[C@H](C)C[C@H](N(C)C)[C@H]2O)[C@](C)(OC(=O)NC/C=C/C=C/c2ccc(-n3cccn3)cc2)C[C@@H](C)C(=O)[C@H](C)[C@H]2NC(=O)O[C@@]21C` [Compound 60], in that order: 1 µg/mL (≈ 1.18 µM), more than 16 µg/mL, 8 µg/mL (≈ 9.41 µM), 0.25 µg/mL (≈ 0.294 µM) and 0.5 µg/mL (≈ 0.588 µM).
As for `CC[C@H]1OC(=O)[C@H](C)C(=O)[C@H](C)[C@@H](O[C@@H]2O[C@H](C)C[C@H](N(C)C)[C@H]2O)[C@](C)(OC(=O)NCc2ccc(-c3nccc(OC)n3)cc2)C[C@@H](C)C(=O)[C@H](C)[C@H]2NC(=O)O[C@@]21C` [Compound 70], the MIC in experiment [1] was 0.25 µg/mL (≈ 0.298 µM); in experiment [2], 16 µg/mL (≈ 19 µM); in experiment [3] it was 4 µg/mL (≈ 4.76 µM); in experiment [4], 0.03 µg/mL (≈ 0.0357 µM); in experiment [5] it was 0.12 µg/mL (≈ 0.143 µM).
In the case of `CCC1OC(=O)C(C)C(=NOC)C(C)C(OC2OC(C)CC(N(C)C)C2O)C(C)(OC(=O)NCC=Cc2ccc(-c3ncccn3)cc2)CC(C)C(=NOC)C(C)C2NC(=O)OC12C` (stereo not drawn) [Compound 134], the MIC in experiment [1] was 2 µg/mL (≈ 2.24 µM); in experiment [2], more than 16 µg/mL; in experiment [3] it was more than 16 µg/mL; in experiment [4], 0.12 µg/mL (≈ 0.134 µM); in experiment [5], 1 µg/mL (≈ 1.12 µM).
As for `CC[C@H]1OC(=O)[C@H](C)C(=O)[C@H](C)[C@@H](O[C@@H]2O[C@H](C)C[C@H](N(C)C)[C@H]2O)[C@](C)(OC(=O)NCC#Cc2cnc3ccccc3c2)C[C@@H](C)C(=O)[C@H](C)[C@H]2NC(=O)O[C@@]21C` [Compound 29], the MIC in experiment [1] amounted to 0.5 µg/mL (≈ 0.62 µM); in experiment [2], 16 µg/mL (≈ 19.8 µM); in experiment [3], 2 µg/mL (≈ 2.48 µM); in experiment [4] it was 0.03 µg/mL (≈ 0.0372 µM); in experiment [5] it was 0.06 µg/mL (≈ 0.0744 µM).
Take `CC[C@H]1OC(=O)[C@H](C)C(=O)[C@H](C)[C@@H](O[C@@H]2O[C@H](C)C[C@H](N(C)C)[C@H]2O)[C@](C)(OC(=O)NC/C=C/c2cccc(-c3ncccn3)c2)C[C@@H](C)C(=O)[C@H](C)[C@H]2NC(=O)O[C@@]21C` [Compound 66]: the MIC is 0.5 µg/mL (≈ 0.598 µM) in experiment [1]; more than 16 µg/mL in experiment [2]; 4 µg/mL (≈ 4.78 µM) in experiment [3]; 0.06 µg/mL (≈ 0.0718 µM) in experiment [4]; 0.12 µg/mL (≈ 0.144 µM) in experiment [5].
In the same order, the values of `CC[C@H]1OC(=O)[C@H](C)C(=O)[C@H](C)[C@@H](O[C@@H]2O[C@H](C)C[C@H](N(C)C)[C@H]2O)[C@](C)(OC(=O)NCc2ccc(-c3ccncn3)cc2)C[C@@H](C)C(=O)[C@H](C)[C@H]2NC(=O)O[C@@]21C` [Compound 79] are 0.25 µg/mL (≈ 0.309 µM), 8 µg/mL (≈ 9.88 µM), 2 µg/mL (≈ 2.47 µM), 0.03 µg/mL (≈ 0.037 µM) and 0.06 µg/mL (≈ 0.0741 µM).
In the same order, the values of `CC[C@H]1OC(=O)[C@H](C)C(=O)[C@H](C)[C@@H](O[C@@H]2O[C@H](C)C[C@H](N(C)C)[C@H]2O)[C@](C)(OC(=O)NC/C=C/c2ccccc2)C[C@@H](C)C(=O)[C@H](C)[C@H]2NC(=O)O[C@@]21C` [Compound 4] are 0.25 µg/mL (≈ 0.33 µM), more than 16 µg/mL, 1 µg/mL (≈ 1.32 µM), 0.03 µg/mL (≈ 0.0396 µM) and 0.12 µg/mL (≈ 0.158 µM).
With `CC[C@H]1OC(=O)[C@H](C)C(=O)[C@H](C)[C@@H](O[C@@H]2O[C@H](C)C[C@H](N(C)C)[C@H]2O)[C@](C)(OC(=O)NC/C=C/c2ccc(-c3cncnc3)cc2)C[C@@H](C)C(=O)[C@H](C)[C@H]2NC(=O)O[C@@]21C` [Compound 27], the MIC in experiment [1] was determined as 0.25 µg/mL (≈ 0.299 µM); in experiment [2] it was 16 µg/mL (≈ 19.1 µM); in experiment [3] it was 4 µg/mL (≈ 4.78 µM); in experiment [4] it was 0.06 µg/mL (≈ 0.0718 µM); in experiment [5], 0.12 µg/mL (≈ 0.144 µM).
On to `CC[C@H]1OC(=O)[C@H](C)C(=O)[C@H](C)[C@@H](O[C@@H]2O[C@H](C)C[C@H](N(C)C)[C@H]2O)[C@](C)(OC(=O)NC/C=C/c2ccc(-n3cncn3)c(F)c2)C[C@@H](C)C(=O)[C@H](C)[C@H]2NC(=O)O[C@@]21C` [Compound 53], for which the MIC was determined as 0.25 µg/mL (≈ 0.297 µM) in experiment [1]; 16 µg/mL (≈ 19 µM) in experiment [2]; 4 µg/mL (≈ 4.75 µM) in experiment [3]; 0.03 µg/mL (≈ 0.0356 µM) in experiment [4]; 0.12 µg/mL (≈ 0.142 µM) in experiment [5].
In the case of `CCC1OC(=O)C(C)(F)C(=O)C(C)C(OC2OC(C)CC(N(C)C)C2O)C(C)(OC(=O)NCC=Cc2ccc(-c3cccnn3)cc2)CC(C)C(=NO)C(C)C2NC(=O)OC12C` (stereo not drawn) [Compound 125], the MIC in experiment [1] is 0.5 µg/mL (≈ 0.575 µM); in experiment [2], 16 µg/mL (≈ 18.4 µM); in experiment [3] it was 2 µg/mL (≈ 2.3 µM); in experiment [4], 0.06 µg/mL (≈ 0.069 µM); in experiment [5], 0.25 µg/mL (≈ 0.288 µM).
In the case of `CC[C@H]1OC(=O)[C@H](C)C(=O)[C@H](C)[C@@H](O[C@@H]2O[C@H](C)C[C@H](N(C)C)[C@H]2O)[C@](C)(OC(=O)NCc2ccc(Oc3ncccn3)cc2)C[C@@H](C)C(=O)[C@H](C)[C@H]2NC(=O)O[C@@]21C` [Compound 83], the MIC in experiment [1] is 2 µg/mL (≈ 2.42 µM); in experiment [2] it was more than 16 µg/mL; in experiment [3], 8 µg/mL (≈ 9.69 µM); in experiment [4], 0.06 µg/mL (≈ 0.0726 µM); in experiment [5] it was 0.25 µg/mL (≈ 0.303 µM).
With `CC[C@H]1OC(=O)[C@H](C)C(=O)[C@H](C)[C@@H](O[C@@H]2O[C@H](C)C[C@H](N(C)C)[C@H]2OC(C)=O)[C@](C)(OC(=O)NC/C=C/c2ccc(-c3ncccn3)cc2)C[C@@H](C)C(=O)[C@H](C)[C@H]2NC(=O)O[C@@]21C` [Compound 94], the MIC was 0.25 µg/mL (≈ 0.285 µM) in experiment [1]; more than 16 µg/mL in experiment [2]; 2 µg/mL (≈ 2.28 µM) in experiment [3]; 0.06 µg/mL (≈ 0.0683 µM) in experiment [4]; 0.12 µg/mL (≈ 0.137 µM) in experiment [5].
